# Patent US20120280189A1, “PERFLU[…] GASEOUS DIELECTRICS” (priority 2010, published 2012)
# Test system: mice
# Test: short-term inhalation test, acute toxicity
# Type: in vivo
# Details: mice exposed for four hours at 100,000 ppm in air
compound,measurement,value
"O=C(C(F)(F)C(F)(F)F)C(F)(C(F)(F)F)C(F)(F)F [CF3CF2C(O)CF(CF3)2, 1,1,1,2,2,4,5,5,5-nonafluoro-4-trifluoromethyl-pentan-3-one]",acute toxicity,low acute toxicity
